From a melting point compilation (Tetko et al.; mined from patent text by program, amines drawn as free bases though some values may be those of a salt)

SMILES | melting point
CC(=O)N1N=C(c2ccc(N)cc2)c2cc(Br)ccc2CC1C (centres undefined) | 205 to 208 °C
CCNc1nc(SC)nc(SC)c1[N+](=O)[O-] | 149 to 150 °C
Cc1sc(S(N)(=O)=S)cc1C(C)O (centres undefined) | 100 to 102 °C
O=C1C2C3C=CC(C3)C2C(=O)N1OS(=O)(=O)C(F)(F)F (centres undefined) | 89 to 90 °C
Cc1cn(C(C(=O)N(C)C)c2ccccc2)nc1-c1ccccc1 (centres undefined) | 136 to 138 °C
CN(C1=CC(=O)c2nccnc2C1=O)c1ccccc1 | 207 to 208 °C
OCc1cn(-c2cc(F)cc(C(F)(F)F)c2)cn1 | 144 to 145 °C
O=C(CC1CCCC1)c1c(-c2ccc3cc(O)ccc3c2)oc2ccccc12 | 189 to 190 °C
COC12CC(CCCO)CN(C)C1Cc1c[nH]c3cccc2c13 (centres undefined) | 190 to 195 °C
CN1CCN(c2ccc([N+](=O)[O-])cc2)S1(=O)=O | 155 to 163 °C
CC(=O)Oc1ccc(-n2c(-c3ccccc3)cc3ccccc32)cc1C(=O)O | 178 to 180 °C
O=C1c2cc(Cl)ccc2CN2CCC(=NO)C12 (centres undefined) | 130 to 136 °C
O=C(CCCl)Nc1ccccc1 | 114 to 116 °C
CC12CCC3c4ccc(O)cc4CCC3(C)C1CCC2O (centres undefined) | 168 to 170 °C
CNc1nc2c(cc1NC(=O)N1CCN(c3cc(OC)cc(OC)c3)CC1)CCC2 | 148 to 150 °C
NC(=O)c1cccc(OCc2ccc(Br)cc2)c1 | 160 to 161 °C
CCOC(=O)C=CC=Cc1ccc(OC)c(C)c1C | 92 to 95 °C
CS(=O)(=O)c1ccc(-c2cc(C=O)cn2-c2ccc(F)cc2)cc1 | 98 to 100 °C
CC(C)c1nc(CN(C)C(=O)N[C@H](C(=O)O)C(C)C)cs1 | 82.8 to 93.8 °C
CN1C(=O)CC[C@]2(C)c3ccc(-c4ccc(C(C)(C)C)cc4)cc3CC[C@@H]12 | 141 to 147 °C
CCC(CC)Nc1cc(C(=O)OC)ccc1N1C(=O)CCC1(CO)CO | 183 to 185 °C
COc1cc(OC)nc(NC(=O)NS(=O)(=O)c2ccccc2-c2ccccn2)n1 | 175 to 176 °C

SMILES | melting point
CC(C)(C)c1cc(/C=C(\C#N)C(=O)NCCCc2ccccc2)cc(C(C)(C)C)c1O | 209 °C
COC(=O)c1nc(O)ccc1OCc1ccccc1 | 91 to 92 °C
CCCN(CCC)C1COc2cccc(C(=O)c3ccc(F)cc3)c2C1 (centres undefined) | 60 to 62 °C
COc1cccc(C(=O)O)c1OC(C)=O | 139 to 140 °C
O=C(OCC1OC(n2ccc(-n3cncn3)nc2=O)C(OC(=O)c2ccccc2)C1OC(=O)c1ccccc1)c1ccccc1 (centres undefined) | 83 to 84 °C
CCCCOCCOc1ccc(-c2ccc3c(c2)C=C(C(=O)Nc2ccc([C@H](O)c4ccccn4)cc2)CCN3C(=O)C(F)(F)F)cc1 | 100 to 102 °C
CCc1c2c(c(C)c(C)c1N1CCN(c3ccc(OC)cc3)CC1)OC(C)(C)C2=O | 133 to 134 °C
CCOC(=O)CC(=O)NNc1ncc(-c2ccccc2)nc1CC(C)C | 116 to 118 °C
CC#CCOc1ccc(SC(C(=O)NO)c2ccc(F)cc2)cc1 (centres undefined) | 91.1 °C
CC(=NOCCOc1ccc(CC2SC(=O)NC2=O)cc1)c1ccc(-c2ccc3c(c2)OCO3)cc1 (centres undefined) | 137 to 139 °C
COc1cc(Oc2cccc(C(F)(F)F)c2)nc(C(=O)NC2CC2)c1 | 106 to 109 °C
CC(C)(C)CC(=O)c1c(-c2ccc3c(Br)c(OCC(=O)O)ccc3c2)sc2ccccc12 | 206 to 207 °C
CCOC(=O)c1c(CCN(CC)CC)nc2cc(OC)c(OC)cc2c1-c1ccc(OC)c(OC)c1 | 76 to 78 °C
CSC1=NC2=NC3=C(CNCC3=O)CN2N1 | 266 to 269 °C
OP(O)C(C=Cc1ccccc1)NC(c1ccccc1)c1ccccc1 (centres undefined) | 202 to 203 °C
O=C(O)Cc1c(C(=O)O)c2cc(Oc3ccc(OC(F)(F)F)cc3)ccc2n1-c1ccc(N2CCCCC2)cc1 | > 200 °C
COc1cccc(P2(=O)c3ccccc3CN2c2ccccc2)c1 (centres undefined) | 170 to 172 °C
O=C1C=C/C(=C/c2ccc(F)cc2)O1 | 140 to 142 °C
Cc1nc(C(=O)NCCN(C)C)c2n1-c1ccc(Cl)cc1C(c1ccccc1F)=NC2 | 209 to 211 °C
COCCCNC(=O)c1ccc(C(=O)N2CCN(c3ncccc3NCC(C)C)CC2)nc1 | 109 to 110 °C
C[C@H](NC(=O)OCC1c2ccccc2-c2ccccc21)C(=O)O | 144 to 146 °C
[N-]=[N+]=C1C(=O)c2ccccc2-c2ccccc21 | 107 to 109 °C

SMILES | melting point
CCc1c(-c2ccc(OCc3ccccc3)cc2)c2c(C(=O)OC)c(C(=O)OC)c3c(OCc4ccccc4)ccc1n32 | 115 to 120 °C
CNn1cc(C(=O)O)c(=O)c2cc3c(cc21)OCO3 | > 300 °C
CC(C)NC(=O)NCC(=O)O | 178 °C
CC1(C)C(C(=O)O)N2C(=O)C(NC(=O)Cc3ccccc3)C2S1=O (centres undefined) | 143 to 145 °C
CN1Cc2cncn2-c2ccc(F)cc2C1=O | 236 °C
O=C(NCc1cccnc1)Nc1cc(N2CC(c3ccccc3)CC2=O)ccn1 (centres undefined) | 179 to 180 °C
Cc1ccc(SC(C#N)c2cccc(C(=O)c3ccccc3)c2)cc1 (centres undefined) | 79 to 79.5 °C
CCCCOc1c(CNC(=O)OC(C)(C)C)n(CC(C)C)c(=O)c2ccc(C(C)=O)cc12 | 161 to 162 °C
Cc1ccc2[nH]nc(S(C)=O)c(=O)c2c1 (centres undefined) | 265 to 267 °C
CN(C)CCSc1cc(NC(=O)OC(C)(C)C)c(N)cc1C#Cc1ccccc1 | 115 to 117 °C
Nc1ccc(Cl)c(C(=O)NCC23CC4CC(CC(C4)C2)C3)c1 | 214 °C
CCCN(CCC)Cc1csc(-c2ncn3c2CN(C)C(=O)c2ccccc2-3)n1 | 111 to 112 °C
CCN(CC)CCNC(=O)c1cccc2c(=O)c3cc(I)ccc3[nH]c12 | 140 to 142 °C
COC(=O)c1ccc[nH]c1=O | 148 to 151 °C
CCCCOCCOc1ccc(-c2ccc3c(c2)C=C(C(=O)Nc2ccc(C/C(=N\O)c4nccn4CCC)cc2)CCN3CC(C)C)cc1 | 166 to 168 °C
O=c1ccn(-c2cccc(C(F)(F)F)c2)nc1-c1cc(C(F)(F)F)nn1-c1ccccc1 | 190 to 191 °C
Cc1cc2c(cc1[N+](=O)[O-])C(C)(C)CCC2(C)C | 143 to 144 °C
Nc1ccc2ccc(Nc3ccccc3)nc2n1 | 250 °C
Ic1c[nH]c2ncccc12 | 201 to 204 °C
Cc1ccc(C(CC(=O)O)C(C#N)c2cccnc2)cc1 (centres undefined) | 185 to 187 °C

Results, then the compound that gave them:

melting point | SMILES
150 to 154 °C | CC(C)(C)n1ncc(OCc2ccc(Oc3ccc(Cl)cc3)nc2)c(Cl)c1=O
212 to 214 °C | Cn1nc(-c2ccccc2)c(C2CCCCC2)c1N
220 °C | NC(=O)c1[nH]cnc1OC(=O)c1ccc(Cl)cc1
80 to 82 °C | C=CCOc1ccc2c(ccc(=O)n2CC=C(C)C)c1
210 °C | Cn1cncc1C(O)(c1ccc(C#N)cc1)c1ccc2c(c1)c(-c1cccc(Cl)c1)cc(=O)n2C (centres undefined)
266 to 267 °C | CCOC(=O)c1ncn2c3cccc(I)c3c(=O)n(C)c12
113 to 115 °C | O=C(NCc1ccccc1)c1ccc2cnccc2n1
229 to 230 °C | Cc1cc(-c2nc3ccc(CN4CCN(C)CC4)cc3c(=O)[nH]2)cc(C)n1
184 to 186 °C | C#CCOc1ccc2nc(N)c3nc4n(c3c2c1)C(C)COC4 (centres undefined)
149 to 151 °C | Nc1c(Cl)cc(C2=NNC(=O)Cc3cc4c(cc32)OCO4)cc1Cl
272 °C | Fc1ccc(F)c(CN2CCNc3ncc(-c4cn[nH]c4)cc32)c1Cl
198 to 200 °C | COc1cc2ncnc(N3CCN(C(=S)Nc4ccc(Cc5ccncc5)cc4)CC3)c2cc1OC
78 to 81 °C | Cc1nc(N2CCN(Cc3ncoc3-c3ccccc3)C2=O)sc1C(=O)NCc1cccnc1
264 to 265 °C | Cc1nc2c(-c3ccc(N4CCN(C)CC4)cc3)cnn2c(N)c1-c1ccc(F)c(Cl)c1
116 to 117 °C | COc1ccc(CCNc2cc(-n3cccn3)nc(-c3cccs3)n2)cc1OC
285 to 287 °C | Cc1cc2c(-c3cccc(-c4noc(=O)[nH]4)c3)c(CC(=O)Nc3ccc(F)cc3C(F)(F)F)c(=O)oc2cc1Cl
77 to 85 °C | CC(=NC(C)c1ccc(Cl)cc1Cl)c1ccc(Cl)cc1Cl (centres undefined)
172 to 174 °C | O=S(=O)(Nc1ccc2c(OCc3ccc(-c4ccc(Cl)c(Cl)c4)cc3F)cccc2c1)C(F)(F)F

melting point | SMILES
79 to 81 °C | Cn1nc(-c2c(Cl)cncc2Cl)nc1Cc1ccc(Cl)cc1Cl
234 to 236 °C | Sc1nc2cc(Cl)c(Cl)cc2s1
204 to 206 °C | Cc1ccc(-c2c(-c3ccc(S(C)(=O)=O)cc3)cnn(-c3ccc(F)c(F)c3)c2=O)cc1F
234 to 238 °C | O=c1c2c(Cc3cccs3)n[nH]c2c2cccnc2n1-c1cccc(OC(F)(F)F)c1
250 °C | CCOc1cc(-c2cc(C(F)F)n3ncc(C(=O)Nc4cccc(S(=O)(=O)NC(C)(C)CO)c4)c3n2)ccc1C(F)(F)F
81 to 83 °C | CCCOc1ccnc(CS(=O)c2nc3ccccc3[nH]2)c1C (centres undefined)
126 to 127 °C | CCOc1nn(Cc2ccc(OCc3nc(-c4ccccc4)oc3C)nc2)cc1CC(=O)O
211 °C | CN(C)c1ccc2nc(N)c(C#N)c(NCc3cccs3)c2c1
238 to 240 °C | Cc1csc(-c2nc(-c3ccc(=O)n(C(C)C)n3)c(-c3ccccc3)nc2N)n1
204 °C | Cc1cc(Cl)cc(C(=O)Nc2ccn(C)n2)n1
259 to 261 °C | Cc1ccc(C(=O)C2=C(O)C(=O)N(c3ccc(C)cn3)C2c2ccc(C(C)C)cc2)cc1 (centres undefined)
158 to 163 °C | Oc1ccc2c(c1)COc1c-2cc2ccc(O)cc2c1-c1ccco1
46 °C | O=C1C(c2ccccc2)=C(c2ccccc2Cl)C(=O)N1c1ccc(Cl)cc1
131 to 134 °C | CCOC(=O)c1cnn(-c2c(Cl)cc(C(F)(F)F)cc2Cl)c1N
134 to 136 °C | CCOC(=O)c1cc(NC(=O)C(N)Cc2ccc(Cl)c(Cl)c2)c[nH]1 (centres undefined)
148 °C | Fc1ccc(-c2ncc(Br)cn2)cc1F
186 to 188 °C | CN(C)c1ccc(-c2nnc(N3CCC(O)CC3)nc2-c2ccc(N(C)C)cc2)cc1
